In patent US20080214619A1, “Business method to treat and/or prevent a gastric acid disorder with a proton pump inhibitor (PPI) and a cholinergic agonist to induce rapid onset of PPI action with or without food” (priority 2006, published 2008):

Test system: acid secretion
Test: Animal study, PPI + cholinergic stimulation: gastric acid output by titration of 30-min gastric collections in fasted, anesthetized, pylorus-ligated rats
Assay type: in vivo
Procedure: Rats are fasted overnight.
Rats are anesthetized and small laparotomy and gastrotomy are performed.
Tygon tubing placed through gastrotomy and into proximal duodenum; pylorus ligated
Tubing is placed through a small gastrotomy into the most dependent portion of the stomach; esophagogastric junction is ligated carefully to avoid vagal damage and to prevent aspiration
Gastrotomy and abdomen is closed around tubing
Stomach is gently rinsed with about 0.9% NaCl at about pH 7.
Gastric contents are collected by gravity for about 30 min, at which time is rinsed with about 5 ml of NaCl and collected; 30-min contents is titrated with about […] using radiometer automatic titrator to determine basal acid output (“BAO”)
Rats (3 per group) are randomized to 1 of 3 treatments: • A. Control—intraduodenal (ID) HCO3; • B. Carbachol about 15 μg/kg IP+ID HCO3; and • C. ID omeprazole (about 20 mg/kg) is dissolved in HCO3+carbachol about 15 μg/kg IP
Gastric contents are collected by gravity for about 30 min, at which time stomachs are rinsed with about 5 ml of NaCl and collected; contents are titrated with 0.01 M NaOH using a Radiometer pH meter; about 30-min collection is repeated ×6.

C[N+](C)(C)CCOC(N)=O [carbachol]
effect on acid secretion (carbachol about 15 μg/kg IP + ID HCO3, 3 per group): rapidly stimulates acid secretion | time at which acid secretion reaches a maximum level following administration (carbachol about 15 μg/kg IP + ID HCO3, gradually diminishes thereafter): about 90 min
